What was measured:
Assay in all cases: relative viability (nuclei count vs DMSO), 5 days (fraction); higher = more cells survive
EMC-BAC-2 = system: EMC-BAC-2
How it was run: (§1)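 Lung cancer cell lines were seeded in 1536-well plates and dosed by pin tool the next day, with either a single drug or a fixed anchor-drug dose combined with five library-drug doses (not always all listed) spaced in √10 steps. Five days later, one step fixed the cells and stained their nuclei (final 0.05% Triton X-100, 1% formaldehyde, 1 ug/ml Hoechst), and nuclei were counted on 4× images. Relative viability is the nuclei count in treated wells divided by the count in vehicle wells, and each value is the median of duplicate plates.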

NCI-H727 = system: NCI-H727
How it was run: as §1

NCI-H1437 = system: NCI-H1437
How it was run: as §1

NCI-H2009 = system: NCI-H2009
How it was run: as §1

NCI-H2023 = system: NCI-H2023
How it was run: as §1

NCI-H2170 = system: NCI-H2170
How it was run: as §1

NCI-H647 = system: NCI-H647
How it was run: as §1

NCI-H460 = system: NCI-H460
How it was run: as §1

NCI-H2405 = system: NCI-H2405
How it was run: as §1

EPLC-272H = system: EPLC-272H
How it was run: as §1

NCI-H520 = system: NCI-H520
How it was run: as §1

LOU-NH91 = system: LOU-NH91
How it was run: as §1

NCI-H2347 = system: NCI-H2347
How it was run: as §1

HOP-62 = system: HOP-62
How it was run: as §1

NCI-H2126 = system: NCI-H2126
How it was run: as §1

HCC-44 = system: HCC-44
How it was run: as §1

NCI-H23 = system: NCI-H23
How it was run: as §1

ChaGo-K-1 = system: ChaGo-K-1
How it was run: as §1

NCI-H441 = system: NCI-H441
How it was run: as §1

NCI-H1793 = system: NCI-H1793
How it was run: as §1

LCLC-103H = system: LCLC-103H
How it was run: as §1

NCI-H650 = system: NCI-H650
How it was run: as §1

SW 1573 = system: SW 1573
How it was run: as §1

Work on `O=c1[nH]c2ccccc2n1C1CCN(CCCC(c2ccc(F)cc2)c2ccc(F)cc2)CC1` [Pimozide] + CS(=O)(=O)N1CCN(Cc2cc3nc(-c4cccc5[nH]ncc45)nc(N4CCOCC4)c3s2)CC1 [Pictilisib] (partner 1 µM) yielded a relative viability (EMC-BAC-2; first compound 0.08 µM) of 0.486, a relative viability (EMC-BAC-2; first compound 0.253 µM) of 0.51 and a relative viability (EMC-BAC-2; first compound 0.8 µM) of 0.549. It also gave a relative viability (EMC-BAC-2; first compound 2.53 µM) of 0.532, a relative viability (EMC-BAC-2; first compound 8 µM) of 0.54 and a relative viability (NCI-H727; first compound 0.08 µM) of 0.367. The relative viability (NCI-H727; first compound 0.253 µM) was 0.357, the relative viability (NCI-H727; first compound 0.8 µM) was 0.389 and the relative viability (NCI-H727; first compound 2.53 µM) was 0.308. The relative viability (NCI-H727; first compound 8 µM) was 0.434, the relative viability (NCI-H1437; first compound 0.08 µM) was 0.543 and the relative viability (NCI-H1437; first compound 0.253 µM) was 0.464. For the same compound, the relative viability (NCI-H1437; first compound 0.8 µM) was 0.499, the relative viability (NCI-H1437; first compound 2.53 µM) was 0.421 and the relative viability (NCI-H1437; first compound 8 µM) was 0.406. The relative viability (NCI-H2009; first compound 0.08 µM) was 0.853, the relative viability (NCI-H2009; first compound 0.253 µM) was 0.923 and the relative viability (NCI-H2009; first compound 0.8 µM) was 0.786. The relative viability (NCI-H2009; first compound 2.53 µM) was 0.769, the relative viability (NCI-H2009; first compound 8 µM) was 0.575 and the relative viability (NCI-H2023; first compound 0.08 µM) was 0.214. It also gave a relative viability (NCI-H2023; first compound 0.253 µM) of 0.24, a relative viability (NCI-H2023; first compound 0.8 µM) of 0.212 and a relative viability (NCI-H2023; first compound 2.53 µM) of 0.223. The relative viability (NCI-H2023; first compound 8 µM) was 0.202, the relative viability (NCI-H2170; first compound 0.08 µM) was 0.308 and the relative viability (NCI-H2170; first compound 0.253 µM) was 0.382. The relative viability (NCI-H2170; first compound 0.8 µM) was 0.299, the relative viability (NCI-H2170; first compound 2.53 µM) was 0.326 and the relative viability (NCI-H2170; first compound 8 µM) was 0.236. For the same compound, the relative viability (NCI-H647; first compound 0.08 µM) was 0.389, the relative viability (NCI-H647; first compound 0.253 µM) was 0.39 and the relative viability (NCI-H647; first compound 0.8 µM) was 0.448. It also gave a relative viability (NCI-H647; first compound 2.53 µM) of 0.383, a relative viability (NCI-H647; first compound 8 µM) of 0.334 and a relative viability (NCI-H460; first compound 0.08 µM) of 0.236. It also gave a relative viability (NCI-H460; first compound 0.253 µM) of 0.385, a relative viability (NCI-H460; first compound 0.8 µM) of 0.386 and a relative viability (NCI-H460; first compound 2.53 µM) of 0.353. The relative viability (NCI-H460; first compound 8 µM) was 0.366, the relative viability (NCI-H2405; first compound 0.08 µM) was 0.482 and the relative viability (NCI-H2405; first compound 0.253 µM) was 0.371. It also gave a relative viability (NCI-H2405; first compound 0.8 µM) of 0.422, a relative viability (NCI-H2405; first compound 2.53 µM) of 0.42 and a relative viability (NCI-H2405; first compound 8 µM) of 0.349. The relative viability (EPLC-272H; first compound 0.08 µM) was 0.302, the relative viability (EPLC-272H; first compound 0.253 µM) was 0.269 and the relative viability (EPLC-272H; first compound 0.8 µM) was 0.273. The relative viability (EPLC-272H; first compound 2.53 µM) was 0.258, the relative viability (EPLC-272H; first compound 8 µM) was 0.238 and the relative viability (NCI-H520; first compound 0.08 µM) was 0.294. It also gave a relative viability (NCI-H520; first compound 0.253 µM) of 0.337, a relative viability (NCI-H520; first compound 0.8 µM) of 0.248 and a relative viability (NCI-H520; first compound 2.53 µM) of 0.256. For the same compound, the relative viability (NCI-H520; first compound 8 µM) was 0.259, the relative viability (LOU-NH91; first compound 0.08 µM) was 0.476 and the relative viability (LOU-NH91; first compound 0.253 µM) was 0.489. For the same compound, the relative viability (LOU-NH91; first compound 0.8 µM) was 0.521, the relative viability (LOU-NH91; first compound 2.53 µM) was 0.546 and the relative viability (LOU-NH91; first compound 8 µM) was 0.509. It also gave a relative viability (NCI-H2347; first compound 0.08 µM) of 0.611, a relative viability (NCI-H2347; first compound 0.253 µM) of 0.599 and a relative viability (NCI-H2347; first compound 0.8 µM) of 0.601. It also gave a relative viability (NCI-H2347; first compound 2.53 µM) of 0.605, a relative viability (NCI-H2347; first compound 8 µM) of 0.605 and a relative viability (HOP-62; first compound 0.08 µM) of 0.687. The relative viability (HOP-62; first compound 0.253 µM) was 0.694, the relative viability (HOP-62; first compound 2.53 µM) was 0.687 and the relative viability (HOP-62; first compound 8 µM) was 0.635. It also gave a relative viability (NCI-H2126; first compound 0.08 µM) of 0.437, a relative viability (NCI-H2126; first compound 0.253 µM) of 0.468 and a relative viability (NCI-H2126; first compound 0.8 µM) of 0.512. It also gave a relative viability (NCI-H2126; first compound 2.53 µM) of 0.499, a relative viability (NCI-H2126; first compound 8 µM) of 0.539 and a relative viability (HCC-44; first compound 0.08 µM) of 0.58. It also gave a relative viability (HCC-44; first compound 0.253 µM) of 0.695, a relative viability (HCC-44; first compound 0.8 µM) of 0.565 and a relative viability (HCC-44; first compound 2.53 µM) of 0.576. The relative viability (HCC-44; first compound 8 µM) was 0.558, the relative viability (NCI-H23; first compound 0.08 µM) was 0.589 and the relative viability (NCI-H23; first compound 0.253 µM) was 0.431. For the same compound, the relative viability (NCI-H23; first compound 0.8 µM) was 0.448, the relative viability (NCI-H23; first compound 2.53 µM) was 0.429 and the relative viability (NCI-H23; first compound 8 µM) was 0.468. It also gave a relative viability (ChaGo-K-1; first compound 0.08 µM) of 0.636, a relative viability (ChaGo-K-1; first compound 0.253 µM) of 0.614 and a relative viability (ChaGo-K-1; first compound 0.8 µM) of 0.694. The relative viability (ChaGo-K-1; first compound 2.53 µM) was 0.762, the relative viability (ChaGo-K-1; first compound 8 µM) was 0.569 and the relative viability (NCI-H441; first compound 0.08 µM) was 0.593. For the same compound, the relative viability (NCI-H441; first compound 0.253 µM) was 0.445, the relative viability (NCI-H441; first compound 0.8 µM) was 0.491 and the relative viability (NCI-H441; first compound 2.53 µM) was 0.447. It also gave a relative viability (NCI-H441; first compound 8 µM) of 0.344, a relative viability (NCI-H1793; first compound 0.08 µM) of 0.296 and a relative viability (NCI-H1793; first compound 0.253 µM) of 0.302. The relative viability (NCI-H1793; first compound 0.8 µM) was 0.311, the relative viability (NCI-H1793; first compound 2.53 µM) was 0.357 and the relative viability (NCI-H1793; first compound 8 µM) was 0.275. It also gave a relative viability (LCLC-103H; first compound 0.08 µM) of 0.593, a relative viability (LCLC-103H; first compound 0.253 µM) of 0.513 and a relative viability (LCLC-103H; first compound 0.8 µM) of 0.466. For the same compound, the relative viability (LCLC-103H; first compound 2.53 µM) was 0.574, the relative viability (LCLC-103H; first compound 8 µM) was 0.528 and the relative viability (NCI-H650; first compound 0.08 µM) was 0.851. For the same compound, the relative viability (NCI-H650; first compound 0.253 µM) was 0.852, the relative viability (NCI-H650; first compound 0.8 µM) was 0.878 and the relative viability (NCI-H650; first compound 2.53 µM) was 0.92. It also gave a relative viability (NCI-H650; first compound 8 µM) of 1.09, a relative viability (SW 1573; first compound 0.08 µM) of 0.534 and a relative viability (SW 1573; first compound 0.253 µM) of 0.462. For the same compound, the relative viability (SW 1573; first compound 0.8 µM) was 0.47, the relative viability (SW 1573; first compound 2.53 µM) was 0.449 and the relative viability (SW 1573; first compound 8 µM) was 0.416.

— the supplement of paper PMC10307832
